Consider 2 molecules from patent US9050341B2, “Methods of treating drug resistant and other tumors by administering 6,7-dialkoxy quinazoline derivatives” (NATCO PHARMA LIMITED, priority 2009, dated 2015).

One data set addresses T1, ABL1 (F317I) (Homo sapiens, UniProt P00519, F317I).
T1 construct: host or cells: E. coli host derived from BL21 (T7 phage lysate)
Nature of the data set: KinomeScan kinase profiling. It is filed as binding.

The target in a further data set is T2, ABL1 (T315I) (Homo sapiens, UniProt P00519, T315I).
T2 construct: host or cells: E. coli host derived from BL21 (T7 phage lysate)
The experiment in a line: KinomeScan kinase profiling. It is filed as binding.

A further data set has as its target T3, AKT2 (Homo sapiens, UniProt P31751).
T3 construct: host or cells: E. coli host derived from BL21 (T7 phage lysate)
The experiment in a line: KinomeScan kinase profiling. It counts as binding.

The target in a further data set is T4, CDC2L1 (Homo sapiens, UniProt P21127).
T4 construct: host or cells: T7 phage in E. coli (BL21-derived)
Nature of the data set: KinomeScan kinase profiling. It is filed as binding.

For another data set, the target named is T5, DYRK1B (Homo sapiens, UniProt Q9Y463).
T5 construct: purchased Ambit Biosciences Corp (KinomeScan); host or cells: T7 phage in E. coli host derived from BL21
Nature of the data set: KinomeScan kinase profiling. It is filed as binding.

In another data set the target is T6, FGFR2 (Homo sapiens, UniProt P21802).
T6 construct: host or cells: E. coli host derived from BL21, infected with T7 phage
Nature of the data set: KinomeScan kinase profiling. It is filed as binding.

The next data set concerns the target T7, MAPKAPK2 (Homo sapiens, UniProt P49137).
T7 construct: host or cells: E. coli derived from BL21, infected with T7 phage
Nature of the data set: KinomeScan kinase profiling. It counts as binding.

The target in another data set is T8, MEK6 (Homo sapiens, UniProt P52564).
T8 construct: host or cells: E. coli derived from BL21, infected with T7 phage
The experiment in a line: KinomeScan kinase profiling. It counts as binding.

A further data set concerns the target T9, PKAC-alpha (Homo sapiens, UniProt P17612).
T9 construct: purchased Ambit Biosciences Corp (KinomeScan); host or cells: E. coli host derived from BL21, infected with T7 phage
The experiment in a line: KinomeScan kinase profiling. It counts as binding.

The next data set deals with T10, PRKCD (Homo sapiens, UniProt Q05655).
T10 construct: purchased Ambit Biosciences Corp (KinomeScan); host or cells: E. coli host derived from BL21, infected with T7 phage
Nature of the data set: KinomeScan kinase profiling. It is filed as binding.

The next data set deals with T11, TLK2 (Homo sapiens, UniProt Q86UE8).
T11 construct: purchased Ambit Biosciences Corp (KinomeScan); host or cells: E. coli host derived from the BL21 strain (T7 phage lysate)
Nature of the data set: KinomeScan kinase profiling. It counts as binding.

A further data set has as its target hERG channel (Homo sapiens, UniProt Q12809). Nature of the data set: hERG whole cell patch-clamp in CHO cells. The following applies: 10 μM.
Data set [1] is described as follows: Toxicokinetics in the 30 day repeated dose study in beagle dogs. It counts as in vivo. As to the method: The 30 day repeated dose study employed 12 male and 12 female dogs (Marshall's Farm, China). The dogs were acclimatized for a minimum period of 2 weeks and randomly divided into four main groups (G1-G4), each group comprising of 3 dogs per sex. The animals were dosed orally with capsules of NRC-2694A for a period of 30 consecutive days at dose levels of 10 mg/kg b.wt/day (G2-low dose), 20 mg/kg b.wt/day (G3-mid dose) and 40 mg/kg b.wt/day (G4-high dose). […] The control group (G1-0 mg/kg b. wt/day) animals were dosed by oral capsule with placebo.
The study also tracked body weight (weekly), food consumption (daily), opthalmological status (start and end), hematological and biochemical analyses (start and end), toxicokinetics analysis of plasma (start and end). At the end of the study, all dogs were euthanized by a humane and accepted procedure, subjected to a gross post-mortem examination, organ weights (absolute and relative) were determined, and histopathological examination was carried out.
The toxicokinetic parameters viz.

T8 sequence (P52564 whole entry): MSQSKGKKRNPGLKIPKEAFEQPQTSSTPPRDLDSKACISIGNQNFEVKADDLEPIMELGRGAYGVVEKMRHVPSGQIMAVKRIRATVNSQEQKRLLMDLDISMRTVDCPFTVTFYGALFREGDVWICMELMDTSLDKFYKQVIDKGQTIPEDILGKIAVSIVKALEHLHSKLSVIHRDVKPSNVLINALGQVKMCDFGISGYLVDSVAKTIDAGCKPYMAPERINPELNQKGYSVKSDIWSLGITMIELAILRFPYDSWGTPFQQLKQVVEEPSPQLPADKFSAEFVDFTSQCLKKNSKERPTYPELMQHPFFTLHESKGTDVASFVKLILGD
T4 sequence (P21127 whole entry): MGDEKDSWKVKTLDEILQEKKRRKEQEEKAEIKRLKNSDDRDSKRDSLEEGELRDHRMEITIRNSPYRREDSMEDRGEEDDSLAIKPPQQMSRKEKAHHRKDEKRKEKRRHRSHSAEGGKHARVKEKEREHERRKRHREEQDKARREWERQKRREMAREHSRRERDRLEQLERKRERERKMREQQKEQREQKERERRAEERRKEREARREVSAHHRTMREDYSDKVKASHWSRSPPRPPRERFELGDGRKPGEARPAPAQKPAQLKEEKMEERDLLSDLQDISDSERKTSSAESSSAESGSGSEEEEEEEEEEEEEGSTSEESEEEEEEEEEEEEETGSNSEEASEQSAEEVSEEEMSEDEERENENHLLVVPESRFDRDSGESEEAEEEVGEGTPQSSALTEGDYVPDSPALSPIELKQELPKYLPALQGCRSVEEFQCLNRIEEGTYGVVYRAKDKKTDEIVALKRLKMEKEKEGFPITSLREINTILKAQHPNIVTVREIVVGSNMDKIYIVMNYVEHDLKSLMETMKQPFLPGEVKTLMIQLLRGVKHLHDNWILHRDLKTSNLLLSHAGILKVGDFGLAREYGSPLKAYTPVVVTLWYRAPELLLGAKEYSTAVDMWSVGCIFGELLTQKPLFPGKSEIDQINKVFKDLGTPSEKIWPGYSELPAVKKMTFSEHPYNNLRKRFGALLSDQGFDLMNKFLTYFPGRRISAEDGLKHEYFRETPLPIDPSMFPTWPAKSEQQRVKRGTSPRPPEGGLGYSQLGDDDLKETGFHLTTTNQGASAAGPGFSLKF
T11 sequence (Q86UE8 whole entry): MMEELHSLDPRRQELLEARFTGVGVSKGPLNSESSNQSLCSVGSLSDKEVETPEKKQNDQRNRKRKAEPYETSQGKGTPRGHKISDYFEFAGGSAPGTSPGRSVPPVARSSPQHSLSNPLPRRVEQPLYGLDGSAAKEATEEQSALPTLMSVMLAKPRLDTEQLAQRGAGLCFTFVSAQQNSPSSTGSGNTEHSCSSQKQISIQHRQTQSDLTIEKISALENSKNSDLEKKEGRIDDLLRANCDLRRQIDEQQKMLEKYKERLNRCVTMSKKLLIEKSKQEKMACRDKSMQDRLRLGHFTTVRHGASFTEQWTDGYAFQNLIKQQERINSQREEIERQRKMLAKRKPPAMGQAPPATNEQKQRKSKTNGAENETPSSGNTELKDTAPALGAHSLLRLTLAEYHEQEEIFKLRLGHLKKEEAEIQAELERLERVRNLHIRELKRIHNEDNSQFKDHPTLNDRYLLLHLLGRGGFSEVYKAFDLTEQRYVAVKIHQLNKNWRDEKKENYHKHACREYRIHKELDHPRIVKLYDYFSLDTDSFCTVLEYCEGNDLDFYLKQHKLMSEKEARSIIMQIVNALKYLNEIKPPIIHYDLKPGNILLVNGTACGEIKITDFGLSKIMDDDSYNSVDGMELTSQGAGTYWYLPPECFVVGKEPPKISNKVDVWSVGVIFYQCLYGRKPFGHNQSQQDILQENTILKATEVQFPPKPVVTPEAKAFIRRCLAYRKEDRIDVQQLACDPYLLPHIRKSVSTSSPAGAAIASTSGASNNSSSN
T6 sequence (P21802 22-821): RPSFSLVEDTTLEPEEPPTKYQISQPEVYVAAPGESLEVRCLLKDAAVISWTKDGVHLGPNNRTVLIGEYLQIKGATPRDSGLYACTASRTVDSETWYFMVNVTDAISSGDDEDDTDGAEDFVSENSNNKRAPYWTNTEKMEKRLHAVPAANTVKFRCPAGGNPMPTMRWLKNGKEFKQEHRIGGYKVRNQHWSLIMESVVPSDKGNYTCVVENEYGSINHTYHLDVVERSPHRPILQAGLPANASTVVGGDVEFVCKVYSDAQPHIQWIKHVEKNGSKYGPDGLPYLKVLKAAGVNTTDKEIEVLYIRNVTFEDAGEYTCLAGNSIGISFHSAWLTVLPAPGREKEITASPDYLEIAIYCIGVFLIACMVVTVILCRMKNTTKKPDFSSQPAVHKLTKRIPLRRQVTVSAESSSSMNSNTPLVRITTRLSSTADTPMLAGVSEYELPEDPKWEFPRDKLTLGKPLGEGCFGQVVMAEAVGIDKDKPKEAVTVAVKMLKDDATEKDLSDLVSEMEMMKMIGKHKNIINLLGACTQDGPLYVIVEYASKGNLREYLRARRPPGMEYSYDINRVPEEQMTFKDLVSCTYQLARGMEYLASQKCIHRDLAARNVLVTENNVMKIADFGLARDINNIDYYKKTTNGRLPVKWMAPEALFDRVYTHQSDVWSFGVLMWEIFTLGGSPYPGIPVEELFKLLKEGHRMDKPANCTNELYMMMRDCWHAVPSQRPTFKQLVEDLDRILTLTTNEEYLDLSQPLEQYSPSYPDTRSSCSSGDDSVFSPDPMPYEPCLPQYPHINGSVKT
T10 sequence (Q05655 whole entry): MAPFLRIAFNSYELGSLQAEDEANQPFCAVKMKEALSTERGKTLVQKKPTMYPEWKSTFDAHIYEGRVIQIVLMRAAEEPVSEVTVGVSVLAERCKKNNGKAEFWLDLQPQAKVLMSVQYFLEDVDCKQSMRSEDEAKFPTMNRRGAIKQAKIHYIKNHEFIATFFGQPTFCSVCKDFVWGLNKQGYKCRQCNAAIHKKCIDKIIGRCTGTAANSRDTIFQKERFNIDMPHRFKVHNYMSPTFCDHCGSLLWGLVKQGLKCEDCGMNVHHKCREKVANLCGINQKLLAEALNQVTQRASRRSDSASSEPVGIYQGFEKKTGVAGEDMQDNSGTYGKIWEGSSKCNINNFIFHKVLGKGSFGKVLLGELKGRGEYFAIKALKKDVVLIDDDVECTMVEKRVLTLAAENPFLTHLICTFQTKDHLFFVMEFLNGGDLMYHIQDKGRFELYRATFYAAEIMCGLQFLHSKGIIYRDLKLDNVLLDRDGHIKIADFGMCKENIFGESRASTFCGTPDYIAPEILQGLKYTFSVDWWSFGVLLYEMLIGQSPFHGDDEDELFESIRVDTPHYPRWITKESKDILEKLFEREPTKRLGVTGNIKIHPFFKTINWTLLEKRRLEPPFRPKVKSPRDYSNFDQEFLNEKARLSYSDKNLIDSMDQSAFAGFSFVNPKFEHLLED
T3 sequence (P31751 whole entry): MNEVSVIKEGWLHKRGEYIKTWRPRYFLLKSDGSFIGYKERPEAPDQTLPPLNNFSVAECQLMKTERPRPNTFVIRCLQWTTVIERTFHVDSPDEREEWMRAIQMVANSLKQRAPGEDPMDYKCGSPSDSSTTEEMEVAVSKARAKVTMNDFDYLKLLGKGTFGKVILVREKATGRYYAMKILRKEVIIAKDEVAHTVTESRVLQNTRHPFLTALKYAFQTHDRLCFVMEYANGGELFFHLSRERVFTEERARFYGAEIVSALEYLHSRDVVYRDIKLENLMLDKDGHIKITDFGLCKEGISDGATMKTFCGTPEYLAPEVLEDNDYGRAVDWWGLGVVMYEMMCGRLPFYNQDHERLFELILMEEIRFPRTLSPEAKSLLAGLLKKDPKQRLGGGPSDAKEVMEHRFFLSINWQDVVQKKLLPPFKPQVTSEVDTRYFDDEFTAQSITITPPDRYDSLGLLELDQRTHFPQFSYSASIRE
T7 sequence (P49137 whole entry): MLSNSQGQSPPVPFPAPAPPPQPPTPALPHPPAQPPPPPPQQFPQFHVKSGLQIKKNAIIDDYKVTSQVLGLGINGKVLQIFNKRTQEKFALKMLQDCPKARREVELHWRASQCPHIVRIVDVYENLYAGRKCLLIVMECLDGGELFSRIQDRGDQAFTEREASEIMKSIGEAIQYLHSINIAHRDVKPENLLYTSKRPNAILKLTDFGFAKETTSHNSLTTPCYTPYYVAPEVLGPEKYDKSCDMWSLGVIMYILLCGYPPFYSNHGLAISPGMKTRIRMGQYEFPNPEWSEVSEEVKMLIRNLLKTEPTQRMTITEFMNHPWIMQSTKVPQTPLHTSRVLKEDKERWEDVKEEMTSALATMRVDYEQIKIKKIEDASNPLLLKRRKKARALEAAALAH
T5 sequence (Q9Y463 whole entry): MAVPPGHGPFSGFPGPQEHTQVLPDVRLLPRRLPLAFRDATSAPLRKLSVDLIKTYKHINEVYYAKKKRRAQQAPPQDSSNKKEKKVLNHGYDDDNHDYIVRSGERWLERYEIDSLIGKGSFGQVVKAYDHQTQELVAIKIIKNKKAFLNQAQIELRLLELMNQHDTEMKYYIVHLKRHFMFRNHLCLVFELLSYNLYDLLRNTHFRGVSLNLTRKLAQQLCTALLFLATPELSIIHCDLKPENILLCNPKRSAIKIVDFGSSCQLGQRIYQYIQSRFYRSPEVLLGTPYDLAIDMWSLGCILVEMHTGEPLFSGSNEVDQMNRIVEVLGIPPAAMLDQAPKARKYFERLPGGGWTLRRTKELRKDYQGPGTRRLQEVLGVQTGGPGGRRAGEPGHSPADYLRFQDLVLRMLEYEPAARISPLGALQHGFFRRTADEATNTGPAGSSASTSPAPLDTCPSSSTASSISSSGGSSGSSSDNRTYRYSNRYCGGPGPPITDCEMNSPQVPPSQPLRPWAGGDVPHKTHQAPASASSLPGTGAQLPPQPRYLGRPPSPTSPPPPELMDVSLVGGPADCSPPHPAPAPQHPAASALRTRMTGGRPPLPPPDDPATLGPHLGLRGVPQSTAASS
Protocol for hERG channel: The test compound was evaluated at 10 μM in 0.1% DMSO (v/v). […] The vehicle control was 0.1% (v/v) DMSO in EC solution.
The selection medium was F-12 (Ham)+GlutaMAX, Ph 7.2, 10% FBS, Penicillin (100 U/mL), Streptomycin (100 μg/mL), Blasticidin S HCL (30 μg/mL) and Hygromycin B (400 μg/mL). The growth medium was F-12 (Ham)+GlutaMAX, 10% FBS, Penicillin (100 U/mL) and Streptomycin (100 μg/mL). The induction medium was F-12 (Ham)+GlutaMAX, 10% FBS, Penicillin (100 U/mL) and Streptomycin (100 μg/mL) and Doxycycline (3 μg/mL). The cell dissociation solution was 0.05% Trypsin-EDTA.

As for `C#Cc1cccc(Nc2ncnc3cc(OC)c(OCCCN4CCOCC4)cc23)c1` [NRC-2694, N-(3-ethylnylphenyl)-7-methoxy-6-[3-(4-morpholinyl)propoxy]-4-quinazolinamine], the “% Ctrl @ 10000 nM” value at ABL1 (F317I) is reported as 48 % Ctrl; on ABL1 (T315I) it was 35 % Ctrl; on AKT2 it was 100 % Ctrl; at CDC2L1, 42 % Ctrl; on DYRK1B, 66 % Ctrl; on FGFR2, 100 % Ctrl. Further, the “% Ctrl @ 10000 nM” value on MAPKAPK2 worked out at 90 % Ctrl; at MEK6, 75 % Ctrl; on PKAC-alpha, 100 % Ctrl; on PRKCD it was 84 % Ctrl; at TLK2, 82 % Ctrl. The “hERG channel, conclusion” value at hERG channel is recorded as “an inhibitor of the hERG channel”.

On to `C#Cc1cccc(Nc2ncnc3cc(OC)c(OCCCN4CCOCC4)cc23)c1.Cl` [NRC-2694 monohydrochloride, N-(3-ethylnylphenyl)-7-methoxy-6-[3-(4-morpholinyl)propoxy]-4-quinazolinamine mono hydrochloride], for which the “median Tmax” value in data set [1] (day 1, female dogs, 10 mg/kg oral) was 2 h; in data set [1] (day 1, female dogs, 20 mg/kg oral), 4 h; in data set [1] (day 1, female dogs, 40 mg/kg oral), 4 h; in data set [1] (day 1, male dogs, 10 mg/kg oral), 2 h; in [1] (day 1, male dogs, 20 mg/kg oral), 3 h; in data set [1] (day 1, male dogs, 40 mg/kg oral), 2 h. The “median Tmax” value amounted to 2 h in data set [1] (day 30, female dogs, 10 mg/kg oral); 4 h in data set [1] (day 30, female dogs, 20 mg/kg oral); 2 h in data set [1] (day 30, male dogs, 10 mg/kg oral); 3 h in data set [1] (day 30, male dogs, 20 mg/kg oral). Besides, the “Cmax, dose dependence” value in data set [1] (three dose levels, male and female dogs) is “dose-dependent change”.
